Laboratory results reported in paper PMC8815882, “Screening the pandemic response box identified benzimidazole carbamates, Olorofim and ravuconazole as promising drug candidates for the treatment of eumycetoma” (PLoS Neglected Tropical Diseases, 2022).
Like-named read-outs stand apart in the source and are kept apart here.

Test system: M. mycetomatis genome strain MM55
Assay: CLSI M38-A2 based in vitro susceptibility screening (XTT or resazurin), growth at fixed concentration
Format: cell-based, Madurella mycetomatis
Conditions: Madurella mycetomatis; for Percent fungal survival at 100 µM: read-out: Percentage survival at 100um, 100 uM A (second replicate column)
[1] = mean of three replicates, read-out: Percentage survival at 25um, 25 uM mean
[2] = replicate A, read-out: Percentage survival at 25um, 25 um A
[3] = replicate B, read-out: Percentage survival at 25um, 25 uM B
[4] = replicate C, read-out: Percentage survival at 25um, 25 uM C
[5] = first replicate column, read-out: Percentage survival at 100um, 100 uM A
[6] = mean of three replicates, read-out: Percentage survival at 100um, 100 uM mean
[7] = second replicate column, read-out: Percentage survival at 100um, 100 uM A
[8] = third replicate column, read-out: Percentage survival at 100um, 100 uM A
[9] = mean of replicates, read-out: Percentage survival at 25um, 25 uM mean
[10] = mean of replicates, read-out: Percentage survival at 100um, 100 uM mean
[11] = replicate 1, read-out: Percentage survival at 100um, 100 uM A
[12] = replicate 2, read-out: Percentage survival at 100um, 100 uM A
[13] = replicate 3, read-out: Percentage survival at 100um, 100 uM A
[14] = replicate 1, read-out: Percentage survival at 100um, 100 uM A (first replicate column)
[15] = replicate 3, read-out: Percentage survival at 100um, 100 uM A (third replicate column)

Row | Compound | activity at 25 µM [1] [%] | activity at 25 µM [2] [%] | activity at 25 µM [3] [%] | activity at 25 µM [4] [%] | activity at 100 µM [6] [%] | activity at 25 µM [9] [%] | activity at 100 µM [10] [%] | activity at 100 µM [14] [%] | Percent fungal survival at 100 µM (replicate 2) [%] | activity at 100 µM [15] [%] | other results
1 | COc1cccc(N2CCN(C3=Nc4c(F)cccc4[C@H](CC(=O)O)N3c3cc(C(F)(F)F)ccc3OC)CC2)c1 [MMV690653] | 91 | 89.7 | 103 | 80 | 86.8 |  |  |  |  |  | activity at 100 µM [5]: 86.6%; activity at 100 µM [7]: 87.2%; activity at 100 µM [8]: 86.5%
2 | O=C(NO)C1(CS(=O)(=O)c2ccc(Oc3ccc(Cl)cc3)cc2)CCOCC1 [MMV690706] |  |  |  |  |  |  |  |  |  |  | activity at 25 µM (mean of replicates, MM55, read-out: Percentage survival at 25um, 25 uM mean): 82%; activity at 25 µM (replicate A, MM55, read-out: Percentage survival at 25um, 25 um A): 85.7%; activity at 25 µM (replicate B, MM55, read-out: Percentage survival at 25um, 25 uM B): 90.9%; activity at 25 µM (replicate C, MM55, read-out: Percentage survival at 25um, 25 uM C): 69.4%; activity at 100 µM (mean of replicates, MM55, read-out: Percentage survival at 100um, 100 uM mean): 68.5%; activity at 100 µM (replicate 1, MM55, read-out: Percentage survival at 100um, 100 uM A): 72.4%; activity at 100 µM (replicate 2, MM55, read-out: Percentage survival at 100um, 100 uM A): 62.8%; activity at 100 µM (replicate 3, MM55, read-out: Percentage survival at 100um, 100 uM A): 70.2%
3 | CN(C)CCNC(=O)c1cccc2cccnc12 [MMV811071] |  | 90.3 | 90.7 | 71.6 |  | 84.2 | 85.2 |  |  |  | activity at 100 µM [11]: 79.4%; activity at 100 µM [12]: 92.5%; activity at 100 µM [13]: 83.6%
4 | CCc1ccc(C2CC(C(F)(F)F)n3ncc(C(=O)NCc4ccc(OC)cc4)c3N2)cc1 (centres unmarked) [MMV831201] |  | 65 | 56.7 | 70.7 |  | 64.1 | 67.5 |  |  |  | activity at 100 µM [11]: 62%; activity at 100 µM [12]: 63%; activity at 100 µM [13]: 77.5%
5 | Nc1cc(-c2nc3ccccc3[nH]2)n[nH]c1=O [MMV975972] | 97 | 99 | 101 | 90.7 | 95.6 |  |  | 105 | 90.7 | 91.4 | 
6 | O=C1C=C(c2ccccc2)S(=O)(=O)c2ccccc21 [MMV1006203] |  | 59.6 | 126 | 9.78 |  | 65 | 26.1 | 63.3 | 4.04 | 10.9 | 
7 | CC(C)Oc1cccc(NC(=O)c2ccccc2C(F)(F)F)c1 [MMV1009286] |  | 87.9 | 37.1 | 58 |  |  |  |  |  |  | activity at 25 µM (mean, read-out: Percentage survival at 25um, 25 uM mean): 61%; activity at 100 µM (mean, read-out: Percentage survival at 100um, 100 uM mean): 39%; activity at 100 µM (replicate (first column), read-out: Percentage survival at 100um, 100 uM A): 26.3%; activity at 100 µM (replicate (second column), read-out: Percentage survival at 100um, 100 uM A): 52.4%; activity at 100 µM (replicate (third column), read-out: Percentage survival at 100um, 100 uM A): 38.1%
8 | O=C(c1ccc(F)cc1)N1CCN2C(=O)c3ccccc3C12c1ccccc1 (centres unmarked) [MMV1165877] | 89.2 | 90 | 95.6 | 82.1 | 76.1 |  |  | 85.4 | 71.7 | 71.2 | 
9 | CC(C)(C)c1ccc(Oc2ccc(N)cc2)cc1 [MMV1174026] | 74 | 108 | 51.8 | 62.2 | 2.41 |  |  |  |  |  | activity at 100 µM [5]: -4.12%; activity at 100 µM [7]: 6.23%; activity at 100 µM [8]: 5.13%
10 | CC(C)(C)c1cc(CCC(=O)N2CCC2)cc(C(C)(C)C)c1O [MMV1229204] |  |  |  |  |  |  |  |  |  |  | activity at 25 µM (mean of three, M. mycetomatis MM55, read-out: Percentage survival at 25um, 25 uM mean): 77.7%; activity at 25 µM (replicate A, M. mycetomatis MM55, read-out: Percentage survival at 25um, 25 um A): 91.6%; activity at 25 µM (replicate B, M. mycetomatis MM55, read-out: Percentage survival at 25um, 25 uM B): 84.3%; activity at 25 µM (replicate C, M. mycetomatis MM55, read-out: Percentage survival at 25um, 25 uM C): 57%; activity at 100 µM (mean of three, M. mycetomatis MM55, read-out: Percentage survival at 100um, 100 uM mean): 62.1%; activity at 100 µM (replicate 1, M. mycetomatis MM55, read-out: Percentage survival at 100um, 100 uM A (first replicate column)): 57.1%; Percent fungal survival at 100 µM (replicate 2, M. mycetomatis MM55): 64%; activity at 100 µM (replicate 3, M. mycetomatis MM55, read-out: Percentage survival at 100um, 100 uM A (third replicate column)): 65.1%
